According to patent US12419886B2, “Parenteral formulations and uses thereof” (Eustralis Pharmaceuticals Limited, priority 2018, dated 2025):

Legend:
[1] = Solubility of Compound (Ia) 2HCl in water (ethanol also assessed); type: physicochemical
Procedure: Ethanol was also assessed as part of this study.

[2] = Excipient compatibility, 14 days stability (HPLC assay and related substances); type: physicochemical; conditions: 25° C./60% RH and 40° C./75% RH
Procedure: The successful formulation characteristics of a solution are its solubility and stability. The solvent system chosen must also be able to solubilise the drug at the desired concentration and must provide an environment where the drug has sufficient chemical stability. This study is an initial comparison of 2 weeks stability with potential excipients, and the % degradation was assessed. The excipients assessed are those typically found in liquid and freeze dried formulations. Excipient compatibility was investigated by subjecting a series of mixes containing active and excipient to elevated temperature for a nominated period and monitoring any degradation.
The solutions that were soluble in Table 3 were also prepared using Kolliphor 400 mg/mL in water and with Tween 80 as a solubiliser. These solutions were placed on stability at 25° C./60% RH and 40° C./75% RH for 14 days. The formulations was assessed for assay and related substances after 14 days of storage. Refer to Table 4 and 5 for the results.

pH of solution in water ([1]; 5 mg/mL): 2.39
Result (solubility in water) ([1]; 5 mg/mL (50 mg in 10 mL water)): Very soluble
pH of solution in water ([1]; 10 mg/mL): 2.14
Result (solubility in water) ([1]; 10 mg/mL (100 mg in 10 mL water)): Very soluble
pH of solution in water ([1]; 15 mg/mL): 2.02
Result (solubility in water) ([1]; 15 mg/mL (150 mg in 10 mL water)): Soluble
pH of solution in water ([1]; 20 mg/mL): 1.87
Result (solubility in water) ([1]; 20 mg/mL (200 mg in 10 mL water)): Soluble
pH of solution in water ([1]; 25 mg/mL): 1.81
Result (solubility in water) ([1]; 25 mg/mL (250 mg in 10 mL water)): Soluble
pH of solution in water ([1]; 30 mg/mL): 1.75
Result (solubility in water) ([1]; 30 mg/mL (300 mg in 10 mL water)): Soluble
pH of solution in water ([1]; 35 mg/mL): 1.72
Result (solubility in water) ([1]; 35 mg/mL (350 mg in 10 mL water)): Soluble
pH of solution in water ([1]; 40 mg/mL): 1.66
Result (solubility in water) ([1]; 40 mg/mL (400 mg in 10 mL water)): Soluble
pH of solution in water ([1]; 45 mg/mL): 1.54
Result (solubility in water) ([1]; 45 mg/mL (450 mg in 10 mL water)): Soluble
pH of solution in water ([1]; 50 mg/mL): 1.52
Result (solubility in water) ([1]; 50 mg/mL (500 mg in 10 mL water)): Soluble
Solubility ([1]; 50 mg/mL, sentence follows mention of ethanol): freely soluble
Stability in a range of formulations (conclusion) [2]: quite stable
SMILES: Cc1ccccc1-c1cc(N2CCN(C)CC2)ncc1C(=O)N(C)Cc1cc(C(F)(F)F)cc(C(F)(F)F)c1 [Compound (Ia) 2HCl]
